Measured values reported in PubChem BioAssay (NCI).
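Method: 48-hour compound exposure of cells in 96-well plates, five concentrations, linear interpolation of endpoints. GI50 marks 50% less growth. Definition used: TGI = concentration required for complete inhibition of growth.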

Experiments:
Experiment in all cases: NCI anticancer screen, dose series, 48 h
NCI-H23 lung = tested on: NCI-H23 lung
U251 CNS = tested on: U251 CNS
COLO 205 colon = tested on: COLO 205 colon
NCI-H460 lung = tested on: NCI-H460 lung
HT29 colon = tested on: HT29 colon
OVCAR-8 ovarian = tested on: OVCAR-8 ovarian
RXF 393 renal = tested on: RXF 393 renal
HL-60(TB) leukemia = tested on: HL-60(TB) leukemia
HOP-92 NSCLC = tested on: HOP-92 NSCLC
K-562 leukemia = tested on: K-562 leukemia
UACC-62 melanoma = tested on: UACC-62 melanoma
SF-539 CNS = tested on: SF-539 CNS
MALME-3M melanoma = tested on: MALME-3M melanoma
OVCAR-3 ovarian = tested on: OVCAR-3 ovarian
MCF7 breast = tested on: MCF7 breast
BT-549 breast = tested on: BT-549 breast
PC-3 prostate = tested on: PC-3 prostate
UO-31 renal = tested on: UO-31 renal
DU-145 prostate = tested on: DU-145 prostate
HCT-116 colon = tested on: HCT-116 colon
CAKI-1 renal = tested on: CAKI-1 renal
SK-MEL-28 melanoma = tested on: SK-MEL-28 melanoma
786-0 renal = tested on: 786-0 renal
TK-10 renal = tested on: TK-10 renal
KM12 colon = tested on: KM12 colon
NCI-H226 lung = tested on: NCI-H226 lung
IGROV1 ovarian = tested on: IGROV1 ovarian
NCI/ADR-RES ovarian = tested on: NCI/ADR-RES ovarian
LOX IMVI melanoma = tested on: LOX IMVI melanoma
OVCAR-4 ovarian = tested on: OVCAR-4 ovarian
HS 578T breast = tested on: HS 578T breast
SNB-75 CNS = tested on: SNB-75 CNS
A498 renal = tested on: A498 renal
HCC-2998 colon = tested on: HCC-2998 colon
SR leukemia = tested on: SR leukemia
M14 melanoma = tested on: M14 melanoma
NCI-H522 lung = tested on: NCI-H522 lung
SNB-19 CNS = tested on: SNB-19 CNS
MDA-MB-435 = tested on: MDA-MB-435
SK-OV-3 ovarian = tested on: SK-OV-3 ovarian
MDA-MB-231 breast = tested on: MDA-MB-231 breast
SK-MEL-2 melanoma = tested on: SK-MEL-2 melanoma
HCT-15 colon = tested on: HCT-15 colon
UACC-257 melanoma = tested on: UACC-257 melanoma
CCRF-CEM leukemia = tested on: CCRF-CEM leukemia
MDA-MB-468 breast = tested on: MDA-MB-468 breast
RPMI-8226 leukemia = tested on: RPMI-8226 leukemia
ACHN renal = tested on: ACHN renal
MOLT-4 leukemia = tested on: MOLT-4 leukemia
OVCAR-5 ovarian = tested on: OVCAR-5 ovarian
SF-268 CNS = tested on: SF-268 CNS
SF-295 CNS = tested on: SF-295 CNS
SW-620 colon = tested on: SW-620 colon
SK-MEL-5 melanoma = tested on: SK-MEL-5 melanoma
EKVX NSCLC = tested on: EKVX NSCLC
SN12C renal = tested on: SN12C renal
HOP-62 NSCLC = tested on: HOP-62 NSCLC
A549 NSCLC = tested on: A549 NSCLC

O=C1NC(=S)S/C1=C\c1cn(-c2ccccc2)nc1-c1ccc([N+](=O)[O-])cc1
GI50 (NCI-H23 lung): 2190 nM | TGI (NCI-H23 lung): 8.15 µM | GI50 (U251 CNS): 2940 nM | TGI (U251 CNS): 11 µM | GI50 (COLO 205 colon): 3.5 µM | TGI (COLO 205 colon): 17.6 µM | GI50 (NCI-H460 lung): 2050 nM | TGI (NCI-H460 lung): 5.8 µM | GI50 (HT29 colon): 3.86 µM | TGI (HT29 colon): 89.5 µM | GI50 (OVCAR-8 ovarian): 3.68 µM | TGI (OVCAR-8 ovarian): 23.4 µM | GI50 (RXF 393 renal): 3.2 µM | TGI (RXF 393 renal): 8.61 µM | GI50 (HL-60(TB) leukemia): 2780 nM | TGI (HL-60(TB) leukemia): 21.2 µM | GI50 (HOP-92 NSCLC): 2730 nM | TGI (HOP-92 NSCLC): 8.64 µM | GI50 (K-562 leukemia): 2530 nM | TGI (K-562 leukemia): > 100 µM | GI50 (UACC-62 melanoma): 1230 nM | TGI (UACC-62 melanoma): 3.18 µM | GI50 (SF-539 CNS): 3.45 µM | TGI (SF-539 CNS): 13.8 µM | GI50 (MALME-3M melanoma): 1960 nM | TGI (MALME-3M melanoma): 6.4 µM | GI50 (OVCAR-3 ovarian): 2950 nM | TGI (OVCAR-3 ovarian): 12.4 µM | GI50 (MCF7 breast): 2740 nM | TGI (MCF7 breast): > 100 µM | GI50 (BT-549 breast): 2150 nM | TGI (BT-549 breast): 6.51 µM | GI50 (PC-3 prostate): 2710 nM | TGI (PC-3 prostate): > 100 µM | GI50 (UO-31 renal): 2500 nM | TGI (UO-31 renal): 11.9 µM | GI50 (DU-145 prostate): 3.63 µM | TGI (DU-145 prostate): > 100 µM | GI50 (HCT-116 colon): 2710 nM | TGI (HCT-116 colon): 10.9 µM | GI50 (CAKI-1 renal): 3.04 µM | TGI (CAKI-1 renal): 13.5 µM | GI50 (SK-MEL-28 melanoma): 2680 nM | TGI (SK-MEL-28 melanoma): 9.82 µM | GI50 (786-0 renal): 3.49 µM | TGI (786-0 renal): 13.5 µM | GI50 (TK-10 renal): 3.81 µM | TGI (TK-10 renal): > 100 µM | GI50 (KM12 colon): 3.34 µM | TGI (KM12 colon): 15.4 µM | GI50 (NCI-H226 lung): 2490 nM | TGI (NCI-H226 lung): 12.1 µM | GI50 (IGROV1 ovarian): 3.4 µM | TGI (IGROV1 ovarian): 14.8 µM | GI50 (NCI/ADR-RES ovarian): 2830 nM | TGI (NCI/ADR-RES ovarian): 12.3 µM | GI50 (LOX IMVI melanoma): 3.22 µM | TGI (LOX IMVI melanoma): 12.8 µM | GI50 (OVCAR-4 ovarian): 2600 nM | TGI (OVCAR-4 ovarian): 16.4 µM | GI50 (HS 578T breast): 2560 nM | TGI (HS 578T breast): 9.27 µM | GI50 (SNB-75 CNS): 1830 nM | TGI (SNB-75 CNS): 11.5 µM | GI50 (A498 renal): 2680 nM | TGI (A498 renal): 8.93 µM | GI50 (HCC-2998 colon): 2880 nM | TGI (HCC-2998 colon): 12.6 µM | GI50 (SR leukemia): 4.3 µM | TGI (SR leukemia): > 100 µM | GI50 (M14 melanoma): 3.4 µM | TGI (M14 melanoma): 14.2 µM | GI50 (NCI-H522 lung): 2390 nM | TGI (NCI-H522 lung): 18.7 µM | GI50 (SNB-19 CNS): 3.46 µM | TGI (SNB-19 CNS): 23.2 µM | GI50 (MDA-MB-435): 2860 nM | TGI (MDA-MB-435): 11.7 µM | GI50 (SK-OV-3 ovarian): 3.33 µM | TGI (SK-OV-3 ovarian): 12.9 µM | GI50 (MDA-MB-231 breast): 4.17 µM | TGI (MDA-MB-231 breast): 16.9 µM | GI50 (SK-MEL-2 melanoma): 2420 nM | TGI (SK-MEL-2 melanoma): 7.46 µM | GI50 (HCT-15 colon): 2100 nM | TGI (HCT-15 colon): 12.9 µM | GI50 (UACC-257 melanoma): 2430 nM | TGI (UACC-257 melanoma): 7.67 µM | GI50 (CCRF-CEM leukemia): 2330 nM | TGI (CCRF-CEM leukemia): > 100 µM | GI50 (MDA-MB-468 breast): 1900 nM | TGI (MDA-MB-468 breast): 10.8 µM | GI50 (RPMI-8226 leukemia): 2660 nM | TGI (RPMI-8226 leukemia): > 100 µM | GI50 (ACHN renal): 3.04 µM | TGI (ACHN renal): 13.4 µM | GI50 (MOLT-4 leukemia): 2890 nM | TGI (MOLT-4 leukemia): > 100 µM | GI50 (OVCAR-5 ovarian): 5.53 µM | TGI (OVCAR-5 ovarian): 26.7 µM | GI50 (SF-268 CNS): 3.01 µM | TGI (SF-268 CNS): > 100 µM | GI50 (SF-295 CNS): 2390 nM | TGI (SF-295 CNS): 11.2 µM | GI50 (SW-620 colon): 3.27 µM | TGI (SW-620 colon): > 100 µM | GI50 (SK-MEL-5 melanoma): 1340 nM | TGI (SK-MEL-5 melanoma): 3.3 µM | GI50 (EKVX NSCLC): 2600 nM | TGI (EKVX NSCLC): 10.4 µM | GI50 (SN12C renal): 2530 nM | TGI (SN12C renal): 15.2 µM | GI50 (HOP-62 NSCLC): 3.45 µM | TGI (HOP-62 NSCLC): 16.5 µM | GI50 (A549 NSCLC): 3.16 µM | TGI (A549 NSCLC): 25.3 µM
